# Experimental data as given in patent publication US20240245627A1, “ALKENE QUINONE COMPOUNDS AND METHODS OF USE” (University of Pittsburgh - Of the Commonwealth System of …, priority 2021, published 2024).
# Key:
# [1] = tested on: RPS/RPL gene expression in human aortic endothelial cells; test: RPS/RPL gene transcription in human aortic endothelial cells (RNA sequencing); assay type: cell-based; settings: 5 μM, 6 hours
# Method: FIG. 9. NO2—OA and Q-NA stimulate divergent effects of RSP/RPL gene transcription in aortic endothelial cells.
# Human aortic endothelial cells were stimulated with vehicle (dimethylsulfoxide, (DMSO)), 5 μM of NO2—OA, or 5 μM Q-NA. Following 6 hours of stimulation, cells were lysed and RNA sequencing was performed.
# Recombinant CYB5R3 = target: T1, Recombinant CYB5R3 (Homo sapiens, UniProt P00387); test: Reduction of oxidized myoglobin by recombinant CYB5R3 (NADH-initiated, absorbance); assay type: biochemical
# T1 sequence (P00387 1-301): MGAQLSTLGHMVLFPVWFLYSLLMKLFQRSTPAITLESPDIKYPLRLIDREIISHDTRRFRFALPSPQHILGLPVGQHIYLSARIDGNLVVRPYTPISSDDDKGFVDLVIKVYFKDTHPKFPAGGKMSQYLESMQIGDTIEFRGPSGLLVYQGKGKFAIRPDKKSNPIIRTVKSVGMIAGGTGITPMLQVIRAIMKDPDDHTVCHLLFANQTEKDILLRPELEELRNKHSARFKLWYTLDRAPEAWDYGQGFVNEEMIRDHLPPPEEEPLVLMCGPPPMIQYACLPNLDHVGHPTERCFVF
# Method: FIGS. 2a-2c. Reduction of oxidized myoglobin by CYB5R3 is not affected by (FIG. 2a) oleic acid or (FIG. 2b) Q-OA (CoQ-linked oleic acid). Q-NA enhanced (FIG. 2c) CYB5R3 reduction of myoglobin. Error bars are S.E.M. and n=3.
# Recombinant CYB5R3 was incubated with nitro-oleic acid, CoQ-linked oleic acid or Q-NA along with oxidized myoglobin. NADH stimulation initiated the reaction and absorbance changes were monitored which is indicative of myoglobin reduction. Q-NA increased myoglobin heme reduction whereas the other compounds had no effect (FIG. 2). Q-NA alone had no effect on myoglobin reduction.
Molecule,RPS/RPL gene expression compared to Q-NA treatment [1],myoglobin heme reduction by CYB5R3 (Recombinant CYB5R3)
"9-, 10-nitro octadece-9-noic acid [NO2—OA]",opposing effects,no effect
"CCCCCCCC/C=C\CCCCCCCC(=O)O [oleic acid, octadece-9-noic acid]",,not affected
